Measured values: publication PMC6976569, “Structural basis of subtype-selective competitive antagonism for GluN2C/2D-containing NMDA receptors” (Nature Communications, 2020)
“And” between values parts separate entries of the source, which are not always exact repeats. Equal values may be shown once. Read-outs that look alike come from different tables or passages of the source.

Legend:
GluA1 = GluA1 (Homo sapiens, UniProt P42261); test: Glutamate-stimulated Ca2+-influx fluorescence assay in HEK293 cells, GluA1; format: cell-based; conditions: for IC50: HEK293 cells, glutamate-stimulated Ca2+-influx
Experimental: (§1) HEK293 cell lines stably expressing homomeric glutamate receptors (GluA1, GluK1 and GluK2) were obtained from Eli Lilly and grown in DMEM (ThermoFisher) supplemented with 10% v/v fetal bovine serum (Sigma), 2 mM Glutamax™ (Gibco), 100 U/mL penicillin, 100 µg streptomycin and 250 ng amphotericin B (Sigma) in 5% CO2 at 37 °C. Cells were passaged using TrypLE (Gibco) as required before confluency and periodically treated with selection antibiotics (GluK1, GluK2 hygromycin B, 200 µg/mL; GluA1 geneticin™, 200 µg/mL).
(§2) Calcium influx fluorescence assay
(§3) 100k cells/well were seeded into a 96-well plate precoated with poly-L-lysine and incubated for 12-16 hours until fully confluent. The cell monolayer was washed twice with 100 µL Hanks Balanced Salt Solution supplemented with 5 mM CaCl2 and 20 mM HEPES (sHBSS), then incubated for 2-4 hours with 100 µL working solution of Ca6 dye (Molecular Devices) supplemented with a desensitization blocker (GluK1, GluK2 0.25 mg/mL concanavalin A, Sigma; GluA1 100 µM cyclothiazide, Sigma). The time resolved fluorescence was recorded in a Flexstation 3 instrument (Molecular Devices). For each individual reading, the initial fluorescence of the well was measured for 20 seconds, after which the desired concentration of […]
(§4) response is measured as the peak change in fluorescence upon addition of agonist. The viability of the cells was confirmed by determination of the concentration-response curve to the L-glutamate agonist and a standard antagonist for each plate. Readings of antagonists used the […]
(§5) Fluorescence traces were performed in […]
(§6) triplicate on each plate and Ki values were determined on a plate-by-plate basis. Separate experiments (n) were performed on different passages of cells. […]

GluN1-4a/GluN2A NMDARs [1] = molecular target: T1, GluN1-4a/GluN2A NMDARs (Rattus norvegicus, UniProt P35439+Q00959); test: TEVC electrophysiology on Xenopus laevis oocytes expressing GluN1-4a/GluN2A; format: cell-based; conditions: Cheng–Prusoff from IC50 and L-glutamate EC50; 100 μM glycine, 1 or 3 μM L-glutamate
T1 construct: expressed in transfected cells; host or cells: Xenopus laevis oocytes injected with cRNA
Source text: (§7) The chemical definition of UBP791 used in this study is a cis-racemic mixture of (2S,3R)- and (2R,3S)-isomers.
(§8) Plasmids (pSP or pCI_NEO) harboring rat GluN1 or GluN2 full-length subunits were linearized by restriction digestion and transcribed according to the manufacturer’s instructions (mMESSAGE mMachine SP6 or T7 kit, ThermoFisher Scientific). Recombinant rat GluN1-4a and GluN2 were expressed by co-injecting cRNA at a 1:2 (w/w) ratio into defolliculated X. laevis oocytes (amounts varied from 0.05–25 ng per oocyte). Two-electrode voltage-clamp recordings were performed 1–3 days after injection using agarose-tipped microelectrodes (0.4–1.2 MΩ) filled with 3 M KCl at a holding potential of −60 mV. The bath solution contained 5 mM HEPES, 100 mM NaCl, 0.3 mM BaCl2, 10 mM Tricine, at pH 7.4 (adjusted with KOH). […] For the statistical evaluation, we implemented pairwise F-tests to test variances, and then performed the Student t test with equal or unequal variances as determined previously, and accounted for multiple testing with the Bonferroni correction.

GluN1-4a/GluN2A NMDARs [2] = molecular target: T2, GluN1-4a/GluN2A NMDARs (Rattus norvegicus, UniProt Q00959); test: as above; format: cell-based; conditions: Ki GluN2A relative to Ki GluN2D (WT)
T2 construct: expressed in transfected cells; host or cells: Xenopus laevis oocytes injected with cRNA
Source text: as §7, §8

GluK2 = GluK2 (Homo sapiens, UniProt Q13002); test: Glutamate-stimulated Ca2+-influx fluorescence assay in HEK293 cells, GluK2; format: cell-based; conditions: for IC50: HEK293 cells, glutamate-stimulated Ca2+-influx
Experimental: as §1, §2, §3, §4, §5, §6

GluN1-4a/GluN2D NMDARs = molecular target: T3, GluN1-4a/GluN2D NMDARs (Rattus norvegicus, UniProt P35439+Q62645); test: TEVC electrophysiology on Xenopus laevis oocytes expressing GluN1-4a/GluN2D; format: cell-based
T3 construct: expressed in transfected cells; host or cells: Xenopus laevis oocytes injected with cRNA
Source text: as §7, §8

GluK1 = molecular target: GluK1; set-up: method as in PMID 24462099; conditions: cited from earlier work
GluA2 = molecular target: GluA2; set-up: method as in PMID 24462099; conditions: cited from earlier work
[3] = system: GluN2D-containing receptors; conditions: cited from earlier work
[4] = system: GluN2C/2D-containing NMDARs; conditions: cited from earlier work; for GluN2C/2D preference over GluN2A/2B: allosteric inhibitors
[5] = system: tPA-promoted neurotoxicity; set-up: method as in Jullienne et al, 2011; conditions: given i.v.; only active where the blood brain barrier was compromised; ref Jullienne et al, 2011; cited from earlier work
[6] = system: GluN1/GluN2B/GluN2D triheteromers; set-up: method as in Volianskis et al., 2013; conditions: hippocampus, at concentrations selective for GluN2D; ref Volianskis et al., 2013; cited from earlier work
GluN2A/2C-triheteromers = system: GluN2A/2C-triheteromers; set-up: method as in Swanger et al, 2017; conditions: oocyte-based system; ref Swanger et al, 2017; cited from earlier work
[7] = molecular target: GluN2C-containing receptors; conditions: cited from earlier work
GluN2D = system: GluN2D; set-up: method as in Swanger et al., 2017; conditions: GluN2D expressed in mammalian cells; ref Swanger et al., 2017; cited from earlier work
[8] = system: GluN1/GluN2B/GluN2D triheteromers; set-up: method as in Brothwell et al., 2008; Suárez et al., 2010; conditions: substantia nigra pars compacta; ref Brothwell et al., 2008; Suárez et al., 2010; cited from earlier work
[9] = molecular target: T4, GluN1-4a/GluN2D Met763Lys/Lys766Arg NMDARs (Rattus norvegicus, UniProt P35439+Q62645, K766R/M763K); test: TEVC electrophysiology on oocytes expressing GluN1-4a/GluN2D Met763Lys/Lys766Arg; format: cell-based
T4 construct: expressed in transfected cells; host or cells: Xenopus laevis oocytes injected with cRNA
Source text: (§9) To test the validity of the structural observation for the critical involvement of the methionine/lysine residue combination (GluN2D-Met763/Lys766, and GluN2A-4m-Met738/Lys741) in preferential binding of UBP791 to GluN2D over GluN2A, we conducted site-directed mutagenesis and assessed inhibition potencies of the mutant channels by TEVC. Specifically, we converted the GluN2D residues to the equivalent ones in the GluN2A subunit and measured macroscopic currents of the GluN1-4a/GluN2D mutant NMDARs.
as §8

[10] = molecular target: T5, GluN1-4a/GluN2D Lys766Arg NMDARs (Rattus norvegicus, UniProt P35439+Q62645, K766R); test: TEVC electrophysiology on oocytes expressing GluN1-4a/GluN2D Lys766Arg; format: cell-based
T5 construct: expressed in transfected cells; host or cells: Xenopus laevis oocytes injected with cRNA
Source text: as §9, §8

[11] = molecular target: T6, GluN1-4a/GluN2D Met763Lys NMDARs (Rattus norvegicus, UniProt P35439+Q62645, M763K); test: TEVC electrophysiology on oocytes expressing GluN1-4a/GluN2D Met763Lys; format: cell-based
T6 construct: expressed in transfected cells; host or cells: Xenopus laevis oocytes injected with cRNA
Source text: as §9, §8

[12] = molecular target: GluN2A-containing receptors; conditions: cited from earlier work
GluN2A-Lys738Met = system: GluN2A-Lys738Met; set-up: method as in PMID 24462099; conditions: cited from earlier work
[13] = molecular target: GluN2B-containing receptors; set-up: method as in earlier work; conditions: TEVC; ref 1-3 (supplementary references); cited from earlier work
[14] = normalized response at 30 µM compound
[15] = normalized response at 100 µM compound
[16] = TEVC, ref 1-3 (supplementary references)

T3 sequence (Q62645 28-1323, other chains not shown): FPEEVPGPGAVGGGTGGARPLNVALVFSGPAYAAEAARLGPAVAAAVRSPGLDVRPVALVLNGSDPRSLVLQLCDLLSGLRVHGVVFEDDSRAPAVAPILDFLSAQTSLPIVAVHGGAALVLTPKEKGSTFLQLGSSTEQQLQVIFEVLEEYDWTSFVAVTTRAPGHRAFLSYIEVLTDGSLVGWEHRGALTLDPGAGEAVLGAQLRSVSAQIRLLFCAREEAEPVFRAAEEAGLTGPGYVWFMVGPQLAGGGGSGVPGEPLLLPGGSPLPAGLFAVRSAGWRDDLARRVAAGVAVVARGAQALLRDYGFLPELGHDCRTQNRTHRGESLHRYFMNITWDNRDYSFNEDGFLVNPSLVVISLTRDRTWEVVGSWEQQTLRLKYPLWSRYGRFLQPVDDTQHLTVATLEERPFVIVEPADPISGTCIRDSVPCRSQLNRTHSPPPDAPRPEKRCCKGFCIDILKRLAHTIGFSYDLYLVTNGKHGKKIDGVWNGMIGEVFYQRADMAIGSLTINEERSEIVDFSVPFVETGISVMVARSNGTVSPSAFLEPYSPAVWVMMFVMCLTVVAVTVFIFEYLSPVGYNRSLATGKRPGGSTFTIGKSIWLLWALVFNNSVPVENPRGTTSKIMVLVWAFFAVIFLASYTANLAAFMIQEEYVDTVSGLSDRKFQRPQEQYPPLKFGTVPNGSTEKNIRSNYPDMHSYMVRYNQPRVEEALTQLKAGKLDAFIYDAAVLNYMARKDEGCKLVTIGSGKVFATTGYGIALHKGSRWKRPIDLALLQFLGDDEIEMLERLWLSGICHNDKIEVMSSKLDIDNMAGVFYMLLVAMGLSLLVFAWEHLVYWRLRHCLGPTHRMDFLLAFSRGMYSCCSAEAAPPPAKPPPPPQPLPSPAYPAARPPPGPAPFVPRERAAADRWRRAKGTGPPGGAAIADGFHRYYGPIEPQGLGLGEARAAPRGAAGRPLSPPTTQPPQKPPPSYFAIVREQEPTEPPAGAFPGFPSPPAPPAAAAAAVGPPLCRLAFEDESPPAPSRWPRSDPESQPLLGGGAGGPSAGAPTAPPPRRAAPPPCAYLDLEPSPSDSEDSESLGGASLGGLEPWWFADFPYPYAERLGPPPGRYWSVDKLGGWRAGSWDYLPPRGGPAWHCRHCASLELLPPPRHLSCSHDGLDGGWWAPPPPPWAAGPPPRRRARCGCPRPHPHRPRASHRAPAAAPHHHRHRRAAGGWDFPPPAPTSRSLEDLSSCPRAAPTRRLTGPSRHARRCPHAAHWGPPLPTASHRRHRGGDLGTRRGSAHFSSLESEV
GluA1, sequence (P42261 19-906): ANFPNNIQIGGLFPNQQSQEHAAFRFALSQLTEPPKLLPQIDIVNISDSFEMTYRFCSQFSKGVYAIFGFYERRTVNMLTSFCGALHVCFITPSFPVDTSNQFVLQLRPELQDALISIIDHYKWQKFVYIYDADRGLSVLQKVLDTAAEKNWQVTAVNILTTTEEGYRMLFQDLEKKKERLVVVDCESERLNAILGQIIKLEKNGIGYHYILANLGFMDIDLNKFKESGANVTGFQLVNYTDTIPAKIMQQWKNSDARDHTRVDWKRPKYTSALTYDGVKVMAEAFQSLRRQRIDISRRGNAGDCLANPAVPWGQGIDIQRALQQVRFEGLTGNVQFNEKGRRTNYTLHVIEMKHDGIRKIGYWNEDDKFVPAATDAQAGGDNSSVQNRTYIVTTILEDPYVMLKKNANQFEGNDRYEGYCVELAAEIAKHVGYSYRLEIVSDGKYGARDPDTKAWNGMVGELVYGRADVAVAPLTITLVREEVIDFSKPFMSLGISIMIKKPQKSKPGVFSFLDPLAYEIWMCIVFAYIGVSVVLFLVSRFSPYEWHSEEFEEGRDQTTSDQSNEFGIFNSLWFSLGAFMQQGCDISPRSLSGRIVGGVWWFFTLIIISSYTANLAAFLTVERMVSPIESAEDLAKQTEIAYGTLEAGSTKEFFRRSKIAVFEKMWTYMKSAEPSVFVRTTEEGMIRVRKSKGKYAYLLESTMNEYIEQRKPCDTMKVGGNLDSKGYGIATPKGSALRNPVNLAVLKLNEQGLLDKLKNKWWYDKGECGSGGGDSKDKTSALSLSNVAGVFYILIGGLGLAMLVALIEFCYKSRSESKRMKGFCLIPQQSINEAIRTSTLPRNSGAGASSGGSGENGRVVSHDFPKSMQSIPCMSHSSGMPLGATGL
GluK2, sequence (Q13002 32-908): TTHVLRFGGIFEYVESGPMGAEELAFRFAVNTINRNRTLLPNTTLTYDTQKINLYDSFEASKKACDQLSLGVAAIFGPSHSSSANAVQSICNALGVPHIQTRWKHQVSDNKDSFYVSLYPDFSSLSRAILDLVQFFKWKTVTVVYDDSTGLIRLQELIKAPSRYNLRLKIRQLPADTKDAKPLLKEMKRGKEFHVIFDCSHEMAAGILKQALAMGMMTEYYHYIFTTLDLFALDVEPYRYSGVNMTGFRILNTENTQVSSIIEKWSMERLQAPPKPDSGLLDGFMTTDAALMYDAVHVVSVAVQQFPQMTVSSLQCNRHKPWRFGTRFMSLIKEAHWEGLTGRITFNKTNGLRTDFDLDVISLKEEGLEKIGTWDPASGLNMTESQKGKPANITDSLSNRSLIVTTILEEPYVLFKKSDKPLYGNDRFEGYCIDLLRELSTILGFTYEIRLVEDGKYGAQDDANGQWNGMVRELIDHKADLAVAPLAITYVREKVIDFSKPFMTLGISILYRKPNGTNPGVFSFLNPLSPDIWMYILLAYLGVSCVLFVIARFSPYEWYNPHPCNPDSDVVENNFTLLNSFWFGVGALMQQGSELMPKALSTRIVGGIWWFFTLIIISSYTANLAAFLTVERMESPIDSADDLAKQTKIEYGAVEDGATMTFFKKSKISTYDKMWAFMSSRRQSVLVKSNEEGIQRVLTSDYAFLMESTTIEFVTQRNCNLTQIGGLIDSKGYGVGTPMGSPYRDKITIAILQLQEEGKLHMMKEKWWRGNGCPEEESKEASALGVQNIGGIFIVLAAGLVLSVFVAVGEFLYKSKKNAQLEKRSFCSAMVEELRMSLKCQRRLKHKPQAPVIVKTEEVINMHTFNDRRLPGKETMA
T2 sequence (Q00959 23-1464, other chains not shown): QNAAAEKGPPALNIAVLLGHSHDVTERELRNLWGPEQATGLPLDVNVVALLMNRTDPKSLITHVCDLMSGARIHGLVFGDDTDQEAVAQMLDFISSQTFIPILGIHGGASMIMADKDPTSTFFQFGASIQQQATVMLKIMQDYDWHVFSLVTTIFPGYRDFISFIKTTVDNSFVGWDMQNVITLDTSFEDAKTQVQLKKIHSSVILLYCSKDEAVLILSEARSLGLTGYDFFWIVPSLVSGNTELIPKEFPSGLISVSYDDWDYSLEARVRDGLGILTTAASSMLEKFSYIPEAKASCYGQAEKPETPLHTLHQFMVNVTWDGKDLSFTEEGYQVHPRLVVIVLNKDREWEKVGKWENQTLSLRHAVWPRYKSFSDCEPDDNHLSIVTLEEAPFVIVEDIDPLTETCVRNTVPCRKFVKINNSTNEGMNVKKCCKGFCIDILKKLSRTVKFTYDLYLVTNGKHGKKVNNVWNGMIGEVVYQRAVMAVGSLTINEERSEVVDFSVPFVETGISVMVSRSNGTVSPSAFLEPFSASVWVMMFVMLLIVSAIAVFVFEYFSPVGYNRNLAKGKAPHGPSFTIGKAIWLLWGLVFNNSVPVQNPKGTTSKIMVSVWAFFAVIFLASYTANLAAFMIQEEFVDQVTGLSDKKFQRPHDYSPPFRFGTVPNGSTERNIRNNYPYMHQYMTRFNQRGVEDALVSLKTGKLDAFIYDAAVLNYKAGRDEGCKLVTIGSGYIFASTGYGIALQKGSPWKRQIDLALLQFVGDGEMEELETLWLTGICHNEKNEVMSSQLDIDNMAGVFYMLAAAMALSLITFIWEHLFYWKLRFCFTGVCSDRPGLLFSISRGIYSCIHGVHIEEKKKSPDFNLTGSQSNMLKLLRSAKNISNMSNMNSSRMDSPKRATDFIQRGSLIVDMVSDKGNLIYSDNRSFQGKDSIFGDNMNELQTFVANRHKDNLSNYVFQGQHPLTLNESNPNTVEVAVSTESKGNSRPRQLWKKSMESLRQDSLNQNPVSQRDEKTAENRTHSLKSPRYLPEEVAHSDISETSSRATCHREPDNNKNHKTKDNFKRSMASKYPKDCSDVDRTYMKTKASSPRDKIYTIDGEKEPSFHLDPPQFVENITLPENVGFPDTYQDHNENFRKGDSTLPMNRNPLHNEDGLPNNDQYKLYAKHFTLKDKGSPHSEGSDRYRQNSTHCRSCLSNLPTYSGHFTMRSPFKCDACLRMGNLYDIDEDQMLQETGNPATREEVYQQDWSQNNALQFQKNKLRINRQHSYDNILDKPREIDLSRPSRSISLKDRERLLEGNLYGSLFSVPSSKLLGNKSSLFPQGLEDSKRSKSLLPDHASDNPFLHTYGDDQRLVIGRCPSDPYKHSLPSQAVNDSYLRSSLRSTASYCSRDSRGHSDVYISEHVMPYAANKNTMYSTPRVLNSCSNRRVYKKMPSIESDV
T5 sequence (Q62645 28-1323 K766R, other chains not shown): as the sequence (Q62645 28-1323, other chains not shown) above, with K739R counted along it
T4 sequence (Q62645 28-1323 M763K/K766R, other chains not shown): as the sequence (Q62645 28-1323, other chains not shown) above, with M736K, K739R counted along it
T6 sequence (Q62645 28-1323 M763K, other chains not shown): as the sequence (Q62645 28-1323, other chains not shown) above, with M736K counted along it

## CC(Cc1ccc2c(ccc3cc(C(=O)N4CCN[C@H](C(=O)O)[C@@H]4C(=O)O)ccc32)c1)C(=O)O (some centres unmarked) [UBP1701]
GluA1
  IC50: > 100 µM
GluA1; [14]
  Mean Response: 92.5%
GluA1; [15]
  Mean Response: 91.6%
GluN1-4a/GluN2A NMDARs [1]
  Ki: 4.49 ± 0.46 µM
GluN1-4a/GluN2A NMDARs [2]
  fold difference of Ki vs. 2D (GluN2A): ~ 45 fold
GluK2
  IC50: > 100 µM
GluK2; [14]
  Mean Response: 96.9%
GluK2; [15]
  Mean Response: 96.1%
GluN1-4a/GluN2D NMDARs; Ki, Cheng–Prusoff from IC50 and L-glutamate EC50, 100 μM glycine, 1 or 3 μM L-glutamate
  Ki: 0.1 ± 0.01 µM

## O=C(O)C1NCCN(C(=O)c2ccc3c(ccc4ccccc43)c2)C1C(=O)O [(2S,3R)-PPDA]
GluK1
  Ki: 1.17 µM
GluA2
  Ki: 7.85 µM
[3]; GluN2D-containing NMDARs, ref Jespersen et al, 2014
  fold higher potency compared to the (+)-isomer: 7 fold
[4]; GluN2C and GluN2D-containing NMDARs, ref Irvine et al, 2012
  fold higher potency compared to the (+)-isomer: ~ 50 fold
[4]
  potency of (2S,3R)-PPDA compared with (2R,3S)-PPDA: approximately tenfold higher potency
[4]; on GluN2C and GluN2D, ref 29 (Irvine et al., 2012)
  fold higher potency than the racemate: about 1.4 fold

## O=C(O)[C@H]1NCCN(C(=O)c2ccc3cc(Br)c4ccccc4c3c2)[C@H]1C(=O)O (relative stereo) [UBP145, (2R*,3S*)-1-(9-bromophenanthrene-3-carbonyl)piperazine-2,3-dicarboxylic acid]
[5]
  effect on tPA neurotoxicity: blocked neurotoxicity of co-applied tissue plasminogen activator (tPA)
[6]
  block of triheteromers: blocks
[4]
  GluN2C/2D selectivity: up to approximately tenfold

## Cc1ccc2[nH]c(=O)c(C3=NN(C(=O)CCC(=O)O)C(c4ccc(Br)cc4)C3)c(-c3ccccc3)c2c1 (centres unmarked) [DQP-1105]
[4]
  GluN2C/2D preference over GluN2A/2B: ~ 50 fold

## CCN(CC)C(=O)Oc1ccc(C(=O)Nc2cccc3cc[nH]c23)cc1 [NAB-14]
GluN2A/2C-triheteromers
  IC50: ~15 µM
[7]; GluN2C-diheteromers, oocyte-based system, ref Swanger et al, 2017
  IC50: 5 µM
GluN2D
  IC50: 0.58 µM and 0.584 µM
[3]; GluN2D expressed in Xenopus oocytes, ref Swanger et al., 2017
  IC50: 2.2 µM
[4]
  GluN2C/2D preference over GluN2A/2B: about 800 fold
[4]; reviewer's statement in peer review file, ref Swanger A. et al (2007)
  selectivity for recombinant GluN2C/GluN2D over GluN2A/GluN2B: > 800 fold

## O=C(O)[C@H]1NCCN(C(=O)c2ccc3ccc4ccccc4c3c2)[C@H]1C(=O)O (relative stereo) [UBP141, (2R*,3S*)-1-(phenanthrene-3-carbonyl)piperazine-2,3-dicarboxylic acid]
[8]
  inhibition of triheteromers: inhibits
[4]
  GluN2C/2D selectivity: up to approximately tenfold

## N[C@@H](CCC(=O)O)C(=O)O [L-glutamate, reference compound]
[9]
  EC50: 0.17 ± 0.02 µM
[10]
  EC50: 0.13 ± 0.02 µM
[11]
  EC50: 0.27 ± 0.02 µM
GluN1-4a/GluN2D NMDARs
  EC50: 0.17 ± 0.01 µM

## O=C(O)[C@@H]1[C@H](C(=O)O)NCCN1C(=O)c1ccc2c(ccc3ccccc32)c1 (relative stereo) [PPDA, (2S*,3R*)-1-(phenanthrene-2-carbonyl)piperazine-2,3-dicarboxylic acid]
[12]; GluN2A, PPDA values ref 27
  Ki: ~0.5 µM
GluN2A-Lys738Met
  increase of potency compared with the WT GluN2A: fivefold

## O=C(O)Cc1cccnc1C(=O)O [HQA, homoquinolinic acid]
[13]
  EC50: 10 to 20 µM
[7]; [16]
  EC50: 30 to 90 µM
[3]; [16]
  EC50: 30 to 90 µM
[12]; [16]
  EC50: 10 to 20 µM

## COc1ccc2nc(/C=C/c3cccc([N+](=O)[O-])c3)n(-c3ccc(C(=O)O)cc3)c(=O)c2c1 [QNZ46]
[4]
  GluN2C/2D preference over GluN2A/2B: ~ 50 fold

## O=C(O)CCCCc1ccc2c(ccc3cc(C(=O)N4CCNC(C(=O)O)C4C(=O)O)ccc32)c1 (centres unmarked) [UBP1702]
GluA1
  IC50: > 100 µM
GluA1; [14]
  Mean Response: 86.5%
GluA1; [15]
  Mean Response: 97.4%
GluN1-4a/GluN2A NMDARs [1]
  Ki: 6.75 ± 0.75 µM
GluN1-4a/GluN2A NMDARs [2]
  fold difference of Ki vs. 2D (GluN2A): ~ 52 fold
GluK2
  IC50: > 100 µM
GluK2; [14]
  Mean Response: 94.5%
GluK2; [15]
  Mean Response: 96.0%
GluN1-4a/GluN2D NMDARs; read-out: Ki
  Ki: 0.13 ± 0.01 µM
